Measurements as given in ChEMBL document CHEMBL1126109 (J Med Chem, 1992).
pEC50, pIC50: −log10 of the molar value.

Key:
Format in all cases: protein-complex assay
Glutamate NMDA receptor [1] = assay: Compound was evaluated for the inhibition of [3H]MK-801 binding at N-methyl-D-aspartate glutamate receptor
Glutamate NMDA receptor [2] = assay: Compound was evaluated for the inhibition of [3H]-CGS-19,755 binding at N-methyl-D-aspartate glutamate receptor
Glutamate NMDA receptor [3] = assay: Compound was evaluated for the inhibition of [3H]norepinephrine binding at N-methyl-D-aspartate glutamate receptor

pEC50 (Glutamate NMDA receptor [1])	pIC50 (Glutamate NMDA receptor [2])	pEC50 (Glutamate NMDA receptor [3])	SMILES
6.74	6.79	4.78	N[C@]1(C(=O)O)C[C@@H](C(=O)O)C1
7.15	7.01	5.69	NC(C(=O)O)c1nnn[nH]1 (racemic)
	5.79		N[C@@H](CC(=O)O)C(=O)O [ASPARTIC ACID]
5.16	5.38	4.12	CN[C@H](CC(=O)O)C(=O)O [N-METHYL-D-ASPARTIC ACID (NMDA)]
